The subject of one data set is Staphylococcus aureus. Description: Antibacterial activity against Staphylococcus aureus ATCC 29213 expressing FabI assessed as growth inhibition after 18 to 24 hrs by microdilution method. The data set is classed as functional.
The subject of another data set is Pseudomonas aeruginosa. The data set is described as follows: Antibacterial activity against Pseudomonas aeruginosa ATCC 27853 expressing FabI, FabV, FabK assessed as growth inhibition after 18 to 24 hrs by microdilution method. The data set is classed as functional.
The test system of the next data set is Escherichia coli. The data set is described as follows: Antibacterial activity against Escherichia coli ATCC 25922 expressing FabI assessed as growth inhibition after 18 to 24 hrs by microdilution method. The data set is classed as functional.
The subject of the next data set is Bacillus anthracis. The data set is described as follows: Antibacterial activity against Bacillus anthracis Ames expressing FabI assessed as growth inhibition after 18 to 24 hrs by microdilution method. The data set is classed as functional.
In data set [1] the test system is Francisella tularensis subsp. tularensis SCHU S4. Description: Antibacterial activity against Francisella tularensis SCHU S4 expressing FabI assessed as growth inhibition after 42 to 48 hrs by microdilution method. The data set is classed as functional.
Data set [2] can be described thus: Cytotoxicity against mouse Neuro2a cells assessed as cell survival after 72 hrs by CellTiter-96 aqueous one solution assay. The data set is classed as cell-based, N2a. As to conditions: read-out: LC50.
A short description of data set [3]: Cytotoxicity against human 786-O cells assessed as cell survival after 72 hrs by CellTiter-96 aqueous one solution assay. The data set is classed as cell-based, 786-0. As to conditions: read-out: LC50.
Data set [4] has as its target T1, Enoyl-[acyl-carrier-protein] reductase [NADH] (Francisella tularensis subsp. tularensis (strain SCHU S4 / Schu 4), UniProt Q5NGQ3).
T1 sequence (Q5NGQ3 whole entry): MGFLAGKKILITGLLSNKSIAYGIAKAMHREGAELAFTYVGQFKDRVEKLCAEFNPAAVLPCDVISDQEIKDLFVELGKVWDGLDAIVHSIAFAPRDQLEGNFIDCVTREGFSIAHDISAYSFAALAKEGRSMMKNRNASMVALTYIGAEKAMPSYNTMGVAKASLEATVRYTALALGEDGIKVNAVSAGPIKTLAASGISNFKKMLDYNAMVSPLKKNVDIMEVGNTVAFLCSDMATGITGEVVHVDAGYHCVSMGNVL

Data set [5] deals with T1, Enoyl-[acyl-carrier-protein] reductase [NADH]. This is another data set of the same source.
For data set [6] the target is unchanged. The source holds these as a separate data set.
Data set [7] is described as follows: Solubility of the compound in DMSO at 125 uM. The data set is classed as physicochemical.

≈ marks a conversion by molar mass, not a printed value. Some results are limits rather than exact numbers.

Regarding `O=C(CC1CCCCC1)N1CCC(c2nc(-c3ccc(S(=O)(=O)N4CCCC4)cc3)no2)CC1`, the MIC with Staphylococcus aureus is greater than 52 µg/mL; in the data set with Pseudomonas aeruginosa, greater than 52 µg/mL; in the data set with Escherichia coli, greater than 52 µg/mL; in the data set on Bacillus anthracis it was greater than 26 µg/mL; in data set [1] it was greater than 52 µg/mL. The CC50 at 72 h came out at 8 µM in data set [2] and 7 µM in data set [3]. In [4], the Ki came out at 7 µM. In [5], this compound gave an IC50 of 8 µM.

For `O=C(C(=O)N1CC=C(c2ccccc2)CC1)c1c[nH]c2ccccc12`, the MIC was greater than 413 µg/mL in the data set with Staphylococcus aureus; greater than 413 µg/mL with Pseudomonas aeruginosa; greater than 413 µg/mL in the data set on Escherichia coli; greater than 208 µg/mL with Bacillus anthracis; 39 µM in data set [1]. The CC50 at 72 h is 70 µM in [2] and 63 µM in data set [3]. The IC50 is 12 µM in data set [6] and 3 µM in data set [5].

Regarding `O=C(COc1ccccc1)NCCSc1c[nH]c2ccccc12`, in data set [7], the solubility result is “soluble”. Also, the MIC in the data set with Staphylococcus aureus was 86 µg/mL (≈ 263 µM); in the data set on Pseudomonas aeruginosa it was greater than 343 µg/mL; in the data set with Escherichia coli it was greater than 343 µg/mL; in the data set with Bacillus anthracis, 43 µg/mL (≈ 132 µM); in [1], 67 µM. Besides, the CC50 at 72 h in data set [2] and in data set [3] was 30 µM each time. Moreover, the affinity in [4], expressed as Ki, was 3.4 µM. This compound also gave an IC50 in data set [5] of 20 µM.

As to `CN(Cc1ccccc1N)C(=O)c1cc2ccccc2o1`, in data set [6], the IC50 was 45 µM.

Regarding `N#Cc1ccc(Oc2ccccc2O)c(F)c1`, in [6], the midpoint of inhibition, the IC50, lay at 11 µM.

On to `NC(=O)c1ccc(Oc2ccccc2O)c(F)c1`, for which half-maximal inhibition in data set [6] (IC50) required 6 µM.

`CN(Cc1ccc(C(C)(C)C)cc1)Cc1cccc2ccccc12` [BUTENAFINE]: the midpoint of inhibition in [6], the IC50, lay at 76 µM.

As to `O=C(O)c1cn(C2CC2)c2cc(N3CCNCC3)c(F)cc2c1=O` [CIPROFLOXACIN], the minimal inhibitory concentration (MIC) with Staphylococcus aureus is 2 µg/mL (≈ 6.04 µM); in the data set with Pseudomonas aeruginosa, 1 µg/mL (≈ 3.02 µM); in the data set on Escherichia coli, 0.0312 µg/mL (≈ 0.0943 µM); in the data set with Bacillus anthracis, 0.0312 µg/mL (≈ 0.0943 µM); in [1], 0.125 µg/mL.

In data set [6], `Nc1ccn([C@@H]2O[C@H](CO)[C@@H](O)[C@@H]2O)c(=O)n1` [CYTARABINE] displayed an IC50 of 59 µM.

Turning to `O=c1oc2ccccc2c(O)c1Cc1c(O)c2ccccc2oc1=O` [DICUMAROL], the IC50 in data set [6] stood at 47 µM.

For the compound `CCc1ccc(CCOc2ccc(CC3SC(=O)NC3=O)cc2)nc1` (stereo not drawn) [PIOGLITAZONE], in [6], half-maximal inhibition (IC50) was put at 79 µM.

`Oc1cc(Cl)ccc1Oc1ccc(Cl)cc1Cl` [TRICLOSAN]: the results for the CC50 at 72 h in data set [2] and in data set [3] were 5.4 µM and 4.2 µM, respectively. In data set [5], this compound gave an IC50 of 1.3 µM.

Values taken from ChEMBL document CHEMBL2396561 (J Med Chem, 2013).
